Experimental data reported in patent US20230131966A1, “FUNGICIDAL AMIDES” (FMC Corporation, priority 2020, published 2023).

What was measured:
Type in all cases: in vivo
[1] = tested on: Phakopsora pachyrhizi; assay: Test A: Asian soybean rust control on soybean seedlings; settings: for Test A disease control rating (100 = 100% disease control, 0 = no disease control): rate 250 ppm, relative to the controls
[2] = tested on: Puccinia recondita f. sp. tritici; assay: Test B: wheat leaf rust control on wheat seedlings; settings: for Test B disease control rating: 250 ppm, wheat seedlings, 100 = 100% disease control, 0 = no control; for Test B disease control rating (100 = 100% disease control, 0 = no disease control): rate 250 ppm, relative to the controls
[3] = tested on: Zymoseptoria tritici; assay: Test C: wheat leaf blotch control on wheat seedlings; settings: for Test C disease control rating: 250 ppm, wheat seedlings, 100 = 100% disease control, 0 = no control; for Test C disease control rating (100 = 100% disease control, 0 = no disease control): rate 250 ppm, relative to the controls
[4] = tested on: Plasmopara viticola; assay: Test D: grape downy mildew control on grape seedlings; settings: for Test D disease control rating: 250 ppm, 100 = 100% disease control, 0 = no control; for Test D disease control rating (100 = 100% disease control, 0 = no disease control): rate 250 ppm, relative to the controls
[5] = tested on: Botrytis cinerea; assay: Test E: tomato Botrytis control on tomato seedlings; settings: for Test E disease control rating (100 = 100% disease control, 0 = no disease control): rate 250 ppm, relative to the controls
[6] = tested on: Phytophthora infestans; assay: whole plant or invertebrate; settings: tomato seedlings; for Test F disease control rating: 250 ppm; for Test F disease control rating (100 = 100% disease control, 0 = no disease control): rate 250 ppm, relative to the controls
[7] = tested on: Erysiphe graminis f. sp. tritici; assay: Test G: wheat powdery mildew control on wheat seedlings; settings: for Test G disease control rating (100 = 100% disease control, 0 = no disease control): rate 250 ppm, relative to the controls
[8] = 250 ppm, soybean seedlings, 100 = 100% disease control, 0 = no control
[9] = 250 ppm, 100 = 100% disease control, 0 = no control
[10] = 100 = 100% disease control, 0 = no control

## COc1ccnc(C(=O)N[C@@H](C)C(=O)OC(C)C2CCCc3ccccc32)c1O (single isomer, unassigned) [Compound 183]
[1]; [8]
  Test A disease control rating: 100%
[2]
  Test B disease control rating: 99%
[3]
  Test C disease control rating: 98%
[4]
  Test D disease control rating: 44%
[5]; [9]
  Test E disease control rating: 0%
[6]; [10]
  Test F disease control rating: 0%
[7]; [9]
  Test G disease control rating: 0%

## COc1cccc(C(=O)N[C@@H](C)C(=O)OC(C)c2ccccc2Cc2ccccc2)c1OC(C)=O (single isomer, unassigned) [Compound 7]
[1]; [8]
  Test A disease control rating: 0%
[2]
  Test B disease control rating: 0%
[3]
  Test C disease control rating: 0%
[4]
  Test D disease control rating: 35%
[5]; [9]
  Test E disease control rating: 0%
[6]; [10]
  Test F disease control rating: 0%
[7]; [9]
  Test G disease control rating: 0%

## CCC(OC(=O)[C@H](C)NC(=O)c1nccc(OC)c1OC(C)=O)c1ccc(C2CCCCC2)cc1 (single isomer, unassigned) [Compound 131]
[1]; [8]
  Test A disease control rating: 100%
[2]
  Test B disease control rating: 96%
[3]
  Test C disease control rating: 87%
[4]
  Test D disease control rating: 6%
[5]; [9]
  Test E disease control rating: 0%
[6]; [10]
  Test F disease control rating: 0%
[7]; [9]
  Test G disease control rating: 89%

## COc1ccnc2c(=O)n([C@@H](C)C(=O)OC(C)c3ccc(C4CCCCC4)cc3)c(=O)oc12 (single isomer, unassigned) [Compound 195]
[1]
  Test A disease control rating (100 = 100% disease control, 0 = no disease control): 100%
[2]
  Test B disease control rating (100 = 100% disease control, 0 = no disease control): 99%
[3]
  Test C disease control rating (100 = 100% disease control, 0 = no disease control): 83%
[4]
  Test D disease control rating (100 = 100% disease control, 0 = no disease control): 17%
[5]
  Test E disease control rating (100 = 100% disease control, 0 = no disease control): 0%
[6]
  Test F disease control rating (100 = 100% disease control, 0 = no disease control): 0%
[7]
  Test G disease control rating (100 = 100% disease control, 0 = no disease control): 0%

## COc1ccnc(C(=O)NC(C)C(=O)OC(C)c2ccc(C#C[Si](C)(C)C)cc2)c1O (mixture of isomers) [Compound 69]
[1]; [8]
  Test A disease control rating: 100%
[2]
  Test B disease control rating: 100%
[3]
  Test C disease control rating: 94%
[4]
  Test D disease control rating: 50%
[5]; [9]
  Test E disease control rating: 0%
[6]; [10]
  Test F disease control rating: 9%
[7]; [9]
  Test G disease control rating: 0%

## CCC(OC(=O)[C@H](C)NC(=O)c1nccc(OC)c1OC(C)=O)C1CCCCC1 (single isomer, unassigned) [Compound 168]
[1]; [8]
  Test A disease control rating: 100%
[2]
  Test B disease control rating: 100%
[3]
  Test C disease control rating: 99%
[4]
  Test D disease control rating: 31%
[5]; [9]
  Test E disease control rating: 0%
[6]; [10]
  Test F disease control rating: 0%
[7]; [9]
  Test G disease control rating: 0%

## COc1ccnc(C(=O)N(C)C(C)C(=O)OC(C)c2ccc(C3CCCCC3)cc2)c1O (mixture of isomers) [Compound 193]
[1]
  Test A disease control rating (100 = 100% disease control, 0 = no disease control): 87%
[2]
  Test B disease control rating (100 = 100% disease control, 0 = no disease control): 74%
[3]
  Test C disease control rating (100 = 100% disease control, 0 = no disease control): 3%
[4]
  Test D disease control rating (100 = 100% disease control, 0 = no disease control): 74%
[5]
  Test E disease control rating (100 = 100% disease control, 0 = no disease control): 0%
[6]
  Test F disease control rating (100 = 100% disease control, 0 = no disease control): 0%
[7]
  Test G disease control rating (100 = 100% disease control, 0 = no disease control): 0%

## COc1ccnc(C(=O)NC(C)C(=O)OC(C#N)c2ccccc2)c1O (mixture of isomers) [Compound 159]
[1]; [8]
  Test A disease control rating: 0%
[2]
  Test B disease control rating: 0%
[3]
  Test C disease control rating: 0%
[4]
  Test D disease control rating: 11%
[5]; [9]
  Test E disease control rating: 0%
[6]; [10]
  Test F disease control rating: 0%
[7]; [9]
  Test G disease control rating: 0%

## COc1ccnc(C(=O)N[C@@H](C)C(=O)OC(C)c2cccc3ccccc23)c1OC(C)=O (single isomer, unassigned) [Compound 116]
[1]; [8]
  Test A disease control rating: 100%
[2]
  Test B disease control rating: 100%
[3]
  Test C disease control rating: 95%
[4]
  Test D disease control rating: 55%
[5]; [9]
  Test E disease control rating: 0%
[6]; [10]
  Test F disease control rating: 0%
[7]; [9]
  Test G disease control rating: 0%

## CCOC(=O)c1cnn(-c2ccc(C(C)OC(=O)C(C)NC(=O)c3nccc(OC)c3OC(C)=O)cc2)c1 (mixture of isomers) [Compound 47]
[1]; [8]
  Test A disease control rating: 99%
[2]
  Test B disease control rating: 68%
[3]
  Test C disease control rating: 51%
[4]
  Test D disease control rating: 20%
[5]; [9]
  Test E disease control rating: 0%
[6]; [10]
  Test F disease control rating: 0%
[7]; [9]
  Test G disease control rating: 0%

## COc1ccnc(C(=O)N[C@@H](C)C(=O)OC(C)c2ccc(CC3CCCCC3)cc2)c1OC(C)=O (single isomer, unassigned) [Compound 129]
[1]; [8]
  Test A disease control rating: 100%
[2]
  Test B disease control rating: 100%
[3]
  Test C disease control rating: 91%
[4]
  Test D disease control rating: 32%
[5]; [9]
  Test E disease control rating: 0%
[6]; [10]
  Test F disease control rating: 0%
[7]; [9]
  Test G disease control rating: 0%

## COc1ccnc(C(=O)NC(C)C(=O)OC(C)c2ccccc2Cc2ccc(F)cc2)c1O (mixture of isomers) [Compound 13]
[1]; [8]
  Test A disease control rating: 100%
[2]
  Test B disease control rating: 100%
[3]
  Test C disease control rating: 73%
[4]
  Test D disease control rating: 50%
[5]; [9]
  Test E disease control rating: 0%
[6]; [10]
  Test F disease control rating: 0%
[7]; [9]
  Test G disease control rating: 0%

## CC(NC(=O)c1cccc(NC=O)c1O)C(=O)OC(C)c1cccc(OC2CCC(C)(C)CC2)c1 (mixture of isomers) [Compound 160]
[1]; [8]
  Test A disease control rating: 100%
[2]
  Test B disease control rating: 92%
[3]
  Test C disease control rating: 92%
[4]
  Test D disease control rating: 98%
[5]; [9]
  Test E disease control rating: 0%
[6]; [10]
  Test F disease control rating: 80%
[7]; [9]
  Test G disease control rating: 0%

## COc1ccnc(C(=O)NC(C)C(=O)OC(C)c2cccc3ccccc23)c1O (centres unmarked) [Compound 113]
[1]; Phakopsora pachyrhizi, 250 ppm, soybean seedlings, 100 = 100% disease control, 0 = no control, read-out: Test A disease control rating
  pest or weed control at 250 ppm: 90%
[2]
  Test B disease control rating: 0%
[3]
  Test C disease control rating: 42%
[4]
  Test D disease control rating: 94%
[5]; Botrytis cinerea, 250 ppm, 100 = 100% disease control, 0 = no control, read-out: Test E disease control rating
  pest or weed control at 250 ppm: 0%
[6]; Phytophthora infestans, in Solanum lycopersicum, read-out: Test F disease control rating, 250 ppm, 100 = 100% disease control, 0 = no control
  pest or weed control at 250 ppm: 0%
[7]; Blumeria graminis, 250 ppm, 100 = 100% disease control, 0 = no control, read-out: Test G disease control rating
  pest or weed control at 250 ppm: 0%

## COc1ccnc(C(=O)NC(C)C(=O)OC(C)c2ccc(-n3ccc(C(F)(F)F)n3)cc2-n2ccc(C(F)(F)F)n2)c1OC(C)=O (mixture of isomers) [Compound 90]
[1]; [8]
  Test A disease control rating: 0%
[2]
  Test B disease control rating: 55%
[3]
  Test C disease control rating: 0%
[4]
  Test D disease control rating: 17%
[5]; [9]
  Test E disease control rating: 0%
[6]; [10]
  Test F disease control rating: 0%
[7]; [9]
  Test G disease control rating: 0%

## CCC(OC(=O)[C@H](C)NC(=O)c1nccc(OC)c1OCOC(=O)C(C)C)C1CCCCC1 (single isomer, unassigned) [Compound 188]
[1]
  Test A disease control rating (100 = 100% disease control, 0 = no disease control): 100%
[2]
  Test B disease control rating (100 = 100% disease control, 0 = no disease control): 68%
[3]
  Test C disease control rating (100 = 100% disease control, 0 = no disease control): 27%
[4]
  Test D disease control rating (100 = 100% disease control, 0 = no disease control): 43%
[5]
  Test E disease control rating (100 = 100% disease control, 0 = no disease control): 0%
[6]
  Test F disease control rating (100 = 100% disease control, 0 = no disease control): 0%
[7]
  Test G disease control rating (100 = 100% disease control, 0 = no disease control): 0%

## COc1ccnc(C(=O)NC(C)C(=O)OC(C)C2Cc3ccccc3O2)c1OC(C)=O (mixture of isomers) [Compound 186]
[1]; [8]
  Test A disease control rating: 94%
[2]
  Test B disease control rating: 100%
[3]
  Test C disease control rating: 83%
[4]
  Test D disease control rating: 14%
[5]; [9]
  Test E disease control rating: 0%
[6]; [10]
  Test F disease control rating: 0%
[7]; [9]
  Test G disease control rating: 0%
